Measured values published in ChEMBL document CHEMBL6083236, “Identification of novel diarylpyrimidine derivatives as potent HIV-1 non-nucleoside reverse transcriptase inhibitors against wild-type and K103N mutant viruses” (Eur J Med Chem, 2024).
pEC50: −log10 of the molar value.

Columns and labels:
[1] = system: Human immunodeficiency virus 1; assay: Antiviral activity against HIV1 harboring RES056 mutant infected in human MT4 cells assessed as reduction in virus induced cytopathic effect incubated for 5 days by Spectrophotometric based MTT assay; type: functional, organism-based; settings: Human immunodeficiency virus 1, RES056, MT4, 120 h
[2] = system: Human immunodeficiency virus 1; assay: Antiviral activity against HIV1 harboring E138K mutant infected in human MT4 cells assessed as reduction in virus induced cytopathic effect incubated for 5 days by Spectrophotometric based MTT assay; type: functional, organism-based; settings: Human immunodeficiency virus 1, MT4, 120 h
MT4 = assay: Cytotoxicity against human MT4 cells assessed as reduction in cell viability incubated for 5 days by Spectrophotometric based MTT assay; type: functional; settings: MT4, 120 h, time 5 day
[3] = Selectivity index, ratio of CC50 for cytotoxicity against human MT4 cells to EC50 for antiviral activity against wild type HIV1 IIIB infected in human MT4 cells
[4] = system: Human immunodeficiency virus 1; assay: Antiviral activity against HIV1 harboring Y188L mutant infected in human MT4 cells assessed as reduction in virus induced cytopathic effect incubated for 5 days by Spectrophotometric based MTT assay; type: functional, organism-based; settings: Human immunodeficiency virus 1, MT4, 120 h
[5] = system: Human immunodeficiency virus 1; assay: Antiviral activity against HIV1 harboring K103 N mutant infected in human MT4 cells assessed as reduction in virus induced cytopathic effect incubated for 5 days by Spectrophotometric based MTT assay; type: functional, organism-based; settings: Human immunodeficiency virus 1, MT4, 120 h
[6] = system: Human immunodeficiency virus 1; assay: Antiviral activity against HIV1 harboring F227L/V106A mutant infected in human MT4 cells assessed as reduction in virus induced cytopathic effect incubated for 5 days by Spectrophotometric based MTT assay; type: functional, organism-based; settings: Human immunodeficiency virus 1, MT4, 120 h
[7] = system: Human immunodeficiency virus 1; assay: Antiviral activity against wild type HIV1 IIIB infected in human MT4 cells assessed as reduction in virus induced cytopathic effect incubated for 5 days by Spectrophotometric based MTT assay; type: functional, organism-based; settings: Human immunodeficiency virus 1, IIIB, MT4, 120 h
[8] = system: Human immunodeficiency virus 1; assay: Antiviral activity against HIV1 harboring L100I mutant infected in human MT4 cells assessed as reduction in virus induced cytopathic effect incubated for 5 days by Spectrophotometric based MTT assay; type: functional, organism-based; settings: Human immunodeficiency virus 1, MT4, 120 h
[9] = system: Human immunodeficiency virus 1; assay: Antiviral activity against HIV1 harboring Y181C mutant infected in human MT4 cells assessed as reduction in virus induced cytopathic effect incubated for 5 days by Spectrophotometric based MTT assay; type: functional, organism-based; settings: Human immunodeficiency virus 1, MT4, 120 h
[10] = Selectivity index, ratio of CC50 for cytotoxicity against human MT4 cells to EC50 for antiviral activity against HIV1 RES056 mutant infected in human MT4 cells

Row | SMILES | pEC50 [1] | pEC50 [2] | CC50 (MT4) | selectivity ratio ([3]; MT4 cells) | pEC50 [4] | pEC50 [5] | pEC50 [6] | pEC50 [7] | pEC50 [8] | pEC50 [9] | selectivity ratio ([10]; MT4 cells) | selectivity ratio ([3]; mt4) | selectivity ratio ([10]; mt4)
1 | Cc1cc(/C=C/C#N)cc(C)c1Oc1ccnc(Nc2ccc(N3CCN(S(C)(=O)=O)CC3=O)c(C#N)c2)n1 | 5.82 | 7.03 | 25600 nM | 5910 | < 4.59 | 8.30 | 6.55 | 8.40 | 7.00 | 6.51 | 17 |  | 
2 | COP(=O)(OC)N1CCN(c2ccc(Nc3nccc(Oc4c(C)cc(/C=C/C#N)cc4C)n3)cc2C#N)C(=O)C1 | < 4.63 |  | 23200 nM | 94 |  |  |  | 6.60 |  |  |  |  | 
3 | Cc1cc(/C=C/C#N)cc(C)c1Oc1ccnc(Nc2ccc(N3CCCC3)c(C#N)c2)n1 | 5.27 |  | 270000 nM | 5010 |  |  |  | 7.27 |  |  | 51 |  | 
4 | Cc1cc(/C=C/C#N)cc(C)c1Oc1ccnc(Nc2ccc(N3CCSCC3=O)c(C#N)c2)n1 | 6.04 |  | 45300 nM | 3410 |  |  |  | 7.89 |  |  | 49 |  | 
5 | COC1CCN(c2ccc(Nc3nccc(Oc4c(C)cc(/C=C/C#N)cc4C)n3)cc2C#N)CC1 | < 5.16 | 6.72 | 6890 nM | 1080 | 5.31 | 7.89 | 6.82 | 8.22 | 6.89 | 6.80 |  |  | 
6 | Cc1cc(/C=C/C#N)cc(C)c1Oc1ccnc(Nc2ccc(N3CCC(C(F)(F)F)CC3)c(C#N)c2)n1 | 4.75 |  | > 241000 nM | > 6100 |  |  |  | 7.40 |  |  | > 14 |  | 
7 | Cc1cc(/C=C/C#N)cc(C)c1Oc1ccnc(Nc2ccc(N3CC(F)C3)c(C#N)c2)n1 | 6.28 | 7.20 | 170000 nM | 20000 | < 3.77 | 8.00 | 6.48 | 8.05 | 7.32 | 7.31 | 328 |  | 
8 | Cc1cc(/C=C/C#N)cc(C)c1Oc1ccnc(Nc2ccc(N3CCC(F)(F)CC3)c(C#N)c2)n1 | 5.90 |  | > 257000 nM | > 8290 |  |  |  | 7.51 |  |  |  |  | 
9 | Cc1cc(/C=C/C#N)cc(C)c1Oc1ccnc(Nc2ccc(N3CCOCC3=O)c(C#N)c2)n1 | 6.85 | 7.82 | 26600 nM | 9540 | 5.59 | 8.40 | 6.48 | 8.52 | 7.89 | 7.64 | 191 |  | 
10 | CC(=O)C1CCN(c2ccc(Nc3nccc(Oc4c(C)cc(/C=C/C#N)cc4C)n3)cc2C#N)CC1 | 5.83 | 6.96 | 5120 nM | 1070 | < 5.29 | 7.92 | 7.12 | 8.30 | 7.19 | 6.82 | 3 |  | 
11 | Cc1ccnc2c1NC(=O)c1cccnc1N2C1CC1 [NEVIRAPINE] | < 4.82 |  | > 15000 nM |  | < 4.82 | 5.05 | < 4.82 |  | 5.46 | 5.31 |  |  | 
12 | Cc1cc(/C=C/C#N)cc(C)c1Oc1ccnc(Nc2ccc(N3CC(C#N)C3)c(C#N)c2)n1 | < 4.35 |  | > 44700 nM | > 3480 |  |  |  | 7.89 |  |  |  |  | 
13 | CSC1CN(c2ccc(Nc3nccc(Oc4c(C)cc(/C=C/C#N)cc4C)n3)cc2C#N)C1 | 5.57 | 7.41 | > 267000 nM | > 45200 | < 3.57 | 8.22 | 6.82 | 8.22 | 7.74 | 7.28 | > 99 |  | 
14 | Cc1cc(/C=C/C#N)cc(C)c1Oc1ccnc(Nc2ccc(N3CCN(C=O)CC3)c(C#N)c2)n1 | 6.03 | 7.32 | 15900 nM | 4350 | 5.53 | 7.70 | 7.01 | 8.40 | 7.80 | 7.28 | 17 |  | 
15 | O=C1Nc2ccc(Cl)cc2[C@@](C#CC2CC2)(C(F)(F)F)O1 [EFAVIRENZ] | 6.35 |  | > 6340 nM |  |  | 7.00 | 6.54 |  | 7.46 | 8.22 |  |  | 
16 | Cc1cc(/C=C/C#N)cc(C)c1Oc1ccnc(Nc2ccc(N3CCC(F)CC3)c(C#N)c2)n1 | 5.83 |  | > 267000 nM | > 18800 |  |  |  | 7.85 |  |  | > 181 |  | 
17 | Cc1cc(C#N)cc(C)c1Oc1nc(Nc2ccc(C#N)cc2)nc(N)c1Br [ETRAVIRINE] | 7.09 | 7.60 | > 4590 nM |  | 7.46 | 8.30 | 7.55 |  |  |  |  |  | 
18 | Cc1cc(/C=C/C#N)cc(C)c1Oc1ccnc(Nc2ccc(N3CCN(C)CC3)c(C#N)c2)n1 | < 5.40 |  | 3940 nM | 195 |  |  |  | 7.70 |  |  |  |  | 
19 | Cc1cc(/C=C/C#N)cc(C)c1Oc1ccnc(Nc2ccc(N3CCC(S(C)(=O)=O)CC3)c(C#N)c2)n1 | 6.09 | 7.38 | 6440 nM | 725 | 5.55 | 7.74 | 7.19 | 8.05 | 7.46 | 7.40 | 8 |  | 
20 | Cc1cc(/C=C/C#N)cc(C)c1Oc1ccnc(Nc2ccc(N3CC[S+]([O-])CC3=O)c(C#N)c2)n1 (configuration not stated) | 5.55 |  | 26400 nM | 1780 |  |  |  | 7.82 |  |  | 9 |  | 
21 | Cc1cc(/C=C/C#N)cc(C)c1Oc1ccnc(Nc2ccc(N3CCSCC3)c(C#N)c2)n1 | 6.35 | 7.31 | > 267000 nM | > 30300 | 5.52 | 8.22 | 7.18 | 8.05 | 7.68 | 7.40 | > 596 |  | 
22 | Cc1cn([C@H]2C[C@H](N=[N+]=[N-])[C@@H](CO)O2)c(=O)[nH]c1=O [ZIDOVUDINE] | 7.46 |  | > 7480 nM |  |  |  |  | 7.46 |  |  |  | > 212 | > 214
23 | Cc1cc(/C=C/C#N)cc(C)c1Oc1ccnc(Nc2ccc(N3CCCCC3)c(C#N)c2)n1 | 5.35 |  | > 277000 nM | > 6380 |  |  |  | 7.37 |  |  | > 62 |  | 
24 | COC1CN(c2ccc(Nc3nccc(Oc4c(C)cc(/C=C/C#N)cc4C)n3)cc2C#N)C1 | < 4.35 |  | > 44200 nM | > 2050 |  |  |  | 7.66 |  |  |  |  | 
